Test results as given in patent publication US12351574B2, “Selective ligands for modulation of GIRK channels” (Northeastern University, priority 2018, dated 2025).

Target: T1, GIRK1/4 (Homo sapiens, UniProt P48544+P48549)
T1 sequence (P48549 1-501): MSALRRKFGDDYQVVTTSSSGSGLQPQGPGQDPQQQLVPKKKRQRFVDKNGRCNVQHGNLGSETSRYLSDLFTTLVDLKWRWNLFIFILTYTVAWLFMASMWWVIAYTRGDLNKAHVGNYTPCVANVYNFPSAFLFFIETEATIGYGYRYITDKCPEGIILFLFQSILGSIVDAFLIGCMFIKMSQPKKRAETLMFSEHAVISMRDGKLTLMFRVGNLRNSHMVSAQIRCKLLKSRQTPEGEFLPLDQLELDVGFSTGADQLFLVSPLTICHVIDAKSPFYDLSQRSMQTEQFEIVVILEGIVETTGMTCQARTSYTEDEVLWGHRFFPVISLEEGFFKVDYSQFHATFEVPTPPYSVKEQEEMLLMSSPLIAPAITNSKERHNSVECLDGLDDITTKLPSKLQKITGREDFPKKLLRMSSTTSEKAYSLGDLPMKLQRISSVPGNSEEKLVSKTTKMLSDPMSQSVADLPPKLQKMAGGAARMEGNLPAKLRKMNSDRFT
T1 sequence (P48544 1-419): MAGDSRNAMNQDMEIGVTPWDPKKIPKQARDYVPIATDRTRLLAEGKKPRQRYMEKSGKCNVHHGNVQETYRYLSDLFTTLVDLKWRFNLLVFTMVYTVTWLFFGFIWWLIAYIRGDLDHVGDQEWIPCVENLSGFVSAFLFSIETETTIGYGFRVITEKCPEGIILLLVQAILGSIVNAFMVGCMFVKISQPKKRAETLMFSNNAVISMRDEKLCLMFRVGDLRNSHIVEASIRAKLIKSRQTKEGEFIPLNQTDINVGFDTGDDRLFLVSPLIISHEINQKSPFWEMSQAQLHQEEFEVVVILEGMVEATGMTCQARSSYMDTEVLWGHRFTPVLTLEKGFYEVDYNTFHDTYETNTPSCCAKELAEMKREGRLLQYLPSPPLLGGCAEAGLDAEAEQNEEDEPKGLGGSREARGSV
Test: thallium flux assay, cells expressing GIRK1/4
Assay type: cell-based
Set-up: expressed in transfected cells
Excerpt: Previous studies have utilized the thallium flux Assay to test the effects of ML297 and related compounds in cells coexpressing GIRK1/2 and GIRK1/4. In order to fully investigate the selective activation of GAT compounds, the inventors also utilized this assay. […] To determine the differences between the thallium flux and TEVC assays, the inventors computationally tested whether the binding of selective compounds could affect the selectivity of the pore area. The Cα RMSF of the region between the M1 and M2 helices of the channel were calculated during the MD simulation with or without ML297 and the selective GAT compounds in the GIRK2/2^FD and GIRK4/4^FD systems (FIGS. 60A-60B). […] To further test this idea, the inventors compared the 10 μM GAT1508-induced thallium and potassium currents in oocytes expressing GIRK1/2 and GIRK1/4 by TEVC recording (FIG. 61B). […] In an effort to enhance the current, the TEVC recording was performed at a holding potential of −100 mV.

Compound | activation of GIRK1/4 in thallium flux assay (in words) (concentration-response, FIG. 61A) | EC50 (thallium flux assay) [nM]
Cc1cc(NC(=O)Nc2ccc(Br)s2)n(-c2ccccc2)n1 [GAT1508, 1-(5-bromothiophen-2-yl)-3-(3-methyl-1-phenyl-1H-pyrazol-5-yl)urea] | also activated the cardiac heteromer | 
Cc1cc(NC(=O)Nc2ccc(F)c(F)c2)n(-c2ccccc2)n1 [ML297, reference compound] |  | ~2890
